Measurements taken from patent US8163756B2 (priority 2004, dated 2012).
Where a name gives a salt, the structure may show the parent alone.

How the values were obtained:
Assay type in all cases: biochemical
Abl kinase [1] = target: T1, Abl kinase (Homo sapiens, UniProt P00519); assay: Abl kinase assay A1 (pyruvate kinase/lactate dehydrogenase coupled, spectrophotometric); conditions: Method A1
T1 sequence (P00519 229-512): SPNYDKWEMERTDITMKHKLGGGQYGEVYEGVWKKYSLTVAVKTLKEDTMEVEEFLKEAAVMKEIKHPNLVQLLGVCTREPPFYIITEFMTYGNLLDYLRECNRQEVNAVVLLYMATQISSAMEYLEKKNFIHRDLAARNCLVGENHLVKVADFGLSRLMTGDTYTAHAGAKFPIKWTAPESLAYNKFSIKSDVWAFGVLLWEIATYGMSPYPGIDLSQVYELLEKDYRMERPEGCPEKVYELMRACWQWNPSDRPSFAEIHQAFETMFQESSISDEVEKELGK
Description: (§1) IC50 values were calculated from a series of percent inhibition values determined at a range of inhibitor concentrations using software routines as implemented in the GraphPad Prism software package.

KDR kinase [2] = target: T2, KDR kinase (Homo sapiens, UniProt P35968, DEL940-989/E990V); assay: KDR kinase assay K2 (as K1, 2.1 nM enzyme, 2 h pre-incubation, 1.0 mM ATP); conditions: Method K2
T2 sequence (P35968 with tags, fused parts or gaps DEL940-989/E990V): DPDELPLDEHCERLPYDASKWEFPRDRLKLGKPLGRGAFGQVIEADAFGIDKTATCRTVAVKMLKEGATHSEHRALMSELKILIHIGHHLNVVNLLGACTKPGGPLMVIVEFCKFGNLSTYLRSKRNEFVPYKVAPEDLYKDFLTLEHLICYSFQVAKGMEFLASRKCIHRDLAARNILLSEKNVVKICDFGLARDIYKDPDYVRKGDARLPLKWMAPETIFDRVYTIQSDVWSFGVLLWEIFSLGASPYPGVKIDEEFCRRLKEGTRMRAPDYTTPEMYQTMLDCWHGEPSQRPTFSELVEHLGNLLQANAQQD
Description: as §1

B-Raf(V599E) kinase [3] = target: T3, B-Raf(V599E) kinase (Homo sapiens, UniProt P15056, V600E); assay: B-Raf(V599E) kinase assay B1 (construct 1, MEK1 substrate, coupled spectrophotometric)
Description: (§2) The test compounds were incubated with the reaction mixtureat 30° C. for 2 h. […] The reaction rate was calculated using the […] time frame. […] IC50 values were calculated from a series of percent inhibition values determined at a range of inhibitor concentrations using software routines as implemented in the GraphPad Prism software package.
Target sequence in this assay (P15056 with tags, fused parts or gaps V600E): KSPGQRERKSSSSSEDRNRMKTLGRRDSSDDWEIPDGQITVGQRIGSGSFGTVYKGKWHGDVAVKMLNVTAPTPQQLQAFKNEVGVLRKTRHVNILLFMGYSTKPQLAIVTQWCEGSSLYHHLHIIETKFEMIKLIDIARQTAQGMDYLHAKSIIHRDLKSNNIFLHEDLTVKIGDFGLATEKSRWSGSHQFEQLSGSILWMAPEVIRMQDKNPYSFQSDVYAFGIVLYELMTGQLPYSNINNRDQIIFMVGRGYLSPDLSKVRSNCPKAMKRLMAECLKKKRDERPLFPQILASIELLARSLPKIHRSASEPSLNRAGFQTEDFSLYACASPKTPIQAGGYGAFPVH

[4] = target: T4, phosphorylated p-38-alpha kinase (Homo sapiens, UniProt Q16539); assay: P-38 alpha kinase assay P2 (as P1, not pre-incubated); conditions: method P2 (not pre-incubated)
T4 sequence (Q16539 1-360 isoform Q16539-2): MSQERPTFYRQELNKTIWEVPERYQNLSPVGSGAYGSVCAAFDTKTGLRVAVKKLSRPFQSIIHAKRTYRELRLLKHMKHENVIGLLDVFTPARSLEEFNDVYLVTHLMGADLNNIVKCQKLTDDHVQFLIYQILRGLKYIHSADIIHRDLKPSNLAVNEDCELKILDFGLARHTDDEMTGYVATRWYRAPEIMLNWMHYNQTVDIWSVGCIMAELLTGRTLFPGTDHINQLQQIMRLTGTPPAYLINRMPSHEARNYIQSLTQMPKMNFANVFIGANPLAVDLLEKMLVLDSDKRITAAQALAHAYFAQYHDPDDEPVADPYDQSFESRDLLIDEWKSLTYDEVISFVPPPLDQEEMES
Description: Same as assay P1 except that (1) the reaction was not pre-incubated.

Abl kinase [5] = target: T1, Abl kinase; assay: Abl kinase assay A2 (as A1, 1.1 nM enzyme, 2 h pre-incubation, 0.5 mM ATP)
Description: as §1

B-Raf(V599E) kinase [6] = target: T3, B-Raf(V599E) kinase; assay: B-Raf(V599E) kinase assay B2 (construct 2 at 2 nM, 1 h pre-incubation)
Description: as §2
Target sequence in this assay (P15056 433-726 V600E): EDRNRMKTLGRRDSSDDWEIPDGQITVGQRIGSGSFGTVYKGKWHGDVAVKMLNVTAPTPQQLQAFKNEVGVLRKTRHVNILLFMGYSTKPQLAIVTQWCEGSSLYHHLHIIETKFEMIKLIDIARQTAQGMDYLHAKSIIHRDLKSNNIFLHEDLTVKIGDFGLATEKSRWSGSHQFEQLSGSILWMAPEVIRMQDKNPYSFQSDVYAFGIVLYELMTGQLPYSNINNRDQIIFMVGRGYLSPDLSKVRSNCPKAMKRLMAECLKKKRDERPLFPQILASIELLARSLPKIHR
Same as assay B1 except that (1) construct 2 was employed at a nominal concentration of 2 nM (2) the reaction was pre-incubated at 30° C. for 1 h prior to initiation with ATP (3) a reading time frame of 0.5 h to 1.5 h.

[7] = target: T4, phosphorylated p-38-alpha kinase; assay: P-38 alpha kinase assay P1 (coupled spectrophotometric, 2 h pre-incubation)
KDR kinase [8] = target: T2, KDR kinase; assay: KDR kinase assay K1 (pyruvate kinase/lactate dehydrogenase coupled, spectrophotometric); conditions: Method K1; read-out: KDR Data (IC50)
Description: as §1

[9] = Method A2, read-out: Abl Data (IC50)
[10] = method P1 (2 h pre-incubation), read-out: P-38 Data

Compound	IC50 (B-Raf(V599E) kinase [6]) [nM]	IC50 (Abl kinase [5]; [9]) [nM]	further results
CC(C)(C)c1cc(NC(=O)Nc2cccc(Br)c2)n(-c2cccc(C#N)c2)n1 [Example 5, 1-(3-t-butyl-1-(3-cyanophenyl)-1H-pyrazol-5-yl)-3-(3-bromophenyl)urea]			IC50 (Abl kinase [1]; read-out: Abl Data (IC50)): 2000 nM; IC50 (KDR kinase [2]; read-out: KDR Data (IC50)): 850 nM; IC50 (B-Raf(V599E) kinase [3]): 87 nM; IC50 [4]: 38 nM
CC(C)(C)c1cc(NC(=O)Nc2cccc(Cl)c2)n(-c2cccc(C#N)c2)n1 [Example 8, 1-(3-t-butyl-1-(3-cyanophenyl)-1H-pyrazol-5-yl)-3-(3-chlorophenyl)urea]			inhibition at 10 µM (Abl kinase [1]; @ 10 μM, read-out: Abl Data (percent inhibition)): 81%; inhibition at 10 µM (KDR kinase [2]; @ 10 μM, read-out: KDR Data (percent inhibition)): 96%; IC50 [4]: 25 nM
CC(C)(C)c1cc(NC(=O)Nc2cccc(Oc3cccnc3)c2)n(-c2cc(CC(N)=O)c3ccccc3c2)n1 [Example 86, 1-(1-(4-(2-amino-2-oxoethyl)naphthalen-2-yl)-3-t-butyl-1H-pyrazol-5-yl)-3-(3-(pyridin-3-yloxy)phenyl)urea hydrochloride]	179		IC50 (Abl kinase [5]): 1 nM; IC50 [7]: 24 nM
Cn1c(=O)c(-c2cccc(NC(=O)Nc3cc(C(C)(C)C)nn3-c3ccc4[nH]ccc4c3)c2)cc2cncnc21 [Example 118, 1-(3-t-butyl-1-(1H-indol-5-yl)-1H-pyrazol-5-yl)-3-(3-(8-methyl-7-oxo-7,8-dihydropyrido[2,3-d]pyrimidin-6-yl)phenyl)urea]	23	11	
CC(C)(C)c1cc(NC(=O)Nc2cccc(Cl)c2Cl)n(-c2ccc3cn[nH]c3c2)n1 [Example 120, 1-(3-t-butyl-1-(1H-indazol-6-yl)-1H-pyrazol-5-yl)-3-(2,3-dichlorophenyl)urea]	214	5100	
CC(C)(C)c1cc(NC(=O)Nc2cccc(Cl)c2Cl)n(-c2ccc3[nH]ncc3c2)n1 [Example 121, 1-(3-t-butyl-1-(1H-indazol-5-yl)-1H-pyrazol-5-yl)-3-(2,3-dichlorophenyl)urea]	105	1000	IC50 [7, 10]: 40 nM
Cn1c(=O)c(-c2cccc(NC(=O)Nc3cc(C4CCCC4)nn3-c3ccc4c(c3)CCC(=O)N4)c2)cc2cncnc21 [Example 134, 1-(3-cyclopentyl-1-(2-oxo-1,2,3,4-tetrahydroquinolin-6-yl)-1H-pyrazol-5-yl)-3-(3-(8-methyl-7-oxo-7,8-dihydropyrido[2,3-d]pyrimidin-6-yl)phenyl)urea]	41	52	
CNC(=O)c1cc(Oc2cccc(NC(=O)Nc3cc(C(C)(C)C)nn3-c3ccc4[nH]c(=O)ccc4c3)c2)ccn1 [Example 157, 1-(3-t-butyl-1-(2-oxo-1,2-dihydroquinolin-6-yl)-1H-pyrazol-5-yl)-3-(3-(2-(methylcarbamoyl)pyridin-4-yloxy)phenyl)urea]	40	31	
CNC(=O)c1cc(Oc2ccc(NC(=O)Nc3cc(C(C)(C)C)nn3-c3ccc4nc(NC)ccc4c3)cc2)ccn1 [Example 174, 1-(3-t-butyl-1-(2-(methylamino)quinolin-6-yl)-1H-pyrazol-5-yl)-3-(4-(2-(methylcarbamoyl)pyridin-4-yloxy)phenyl)urea]	245	1.8	
CNC(=O)c1cc(Oc2ccc(NC(=O)Nc3cc(C(C)(C)C)nn3-c3ccc4nc(N)ccc4c3)cc2)ccn1 [Example 176, 1-(1-(2-aminoquinolin-6-yl)-3-t-butyl-1H-pyrazol-5-yl)-3-(4-(2-(methylcarbamoyl)pyridin-4-yloxy)phenyl)urea]	44	2.8	
CC(C)(C)c1cc(NC(=O)Nc2cccc(Oc3cccnc3)c2)n(-c2ccc3c(c2)CC(C(=O)O)NC3)n1 (stereo not shown) [Example 189, 6-(3-t-butyl-5-(3-(3-(pyridin-3-yloxy)phenyl)ureido)-1H-pyrazol-1-yl)-1,2,3,4-tetrahydroisoquinoline-3-carboxylic acid]	918	3	IC50 (KDR kinase [8]): 23 nM
CC(C)(C)c1cc(NC(=O)Nc2cccc(Cl)c2Cl)n(-c2ccc3nc[nH]c(=O)c3c2)n1 [Example 195, 1-(3-t-butyl-1-(4-oxo-3,4-dihydroquinazolin-6-yl)-1H-pyrazol-5-yl)-3-(2,3-dichlorophenyl)urea]	298	910	IC50 [7, 10]: 46 nM
Cn1c(=O)c(-c2cccc(NC(=O)Nc3cc(C(C)(C)C)nn3-c3ccc4c(c3)CCN4S(C)(=O)=O)c2)cc2cncnc21 [Example 197, 1-(3-t-butyl-1-(1-(methylsulfonyl)indolin-5-yl)-1H-pyrazol-5-yl)-3-(3-(8-methyl-7-oxo-7,8-dihydropyrido[2,3-d]pyrimidin-6-yl)phenyl)urea]	27	12	IC50 [7, 10]: 28 nM
